Results: US20260166169A1, “ANTIBODY-DRUG CONJUGATE, PREPARATION METHOD AND USE THEREOF” (priority 2023, published 2026)

System: Detroit 562 cells
Experiment: In vitro killing assay of ADC on Detroit562 cells (CCK-8)
Type: cell-based
Details: Detroit 562, 5 days, 3-fold dilutions from 300 nM, CCK-8, FIG. 19
Experimental: Experimental Example 4: In Vitro Killing Assay of ADC on Detroit562 Cells
Detroit 562 cells (purchased from Nan Jing cobioer biosciences Co., Ltd.) were cultured so that a cell density reached to 80%. The cells were collected, plated in a 96-well plate, and the cell density was adjusted to 2-5×10^4/ml. Each well was plated with 100 μL of cells, and the ADC molecules were serially diluted 3 times with an initial concentration of 300 nM. After the dilution was completed, the ADC molecules were added to the cell culture medium and cultured for 5 days, during which the apoptosis of the cells was observed regularly. After 5 days, 15 μL of the CCK-8 kit stock solution was added to the 96-well plate and reacted in an incubator of 37° C. for 0.5-2 h. An absorbance at 450 nm was measured, and cell survival curves were drawn based on OD (optical density) readings and ADC dilution gradients.
Human IgG-DXD prepared in Comparative Example 4, Human IgG-LP1 prepared in Comparative Example 5, Human IgG-LP2 prepared in Comparative Example 7, Hu1H2-2-LP1 prepared in Example 6, Hu1H2-2-LP2 prepared in Example 8, and Hu1H2-2-DXD prepared in Comparative Example 9 were selected as ADC molecules. Wherein Human IgG was used as the isotype control of Hu1H2-2 antibody, and DXD was used as positive drug.

In the case of `CC[C@@]1(O)C(=O)OCc2c1cc1n(c2=O)Cc2c-1nc1cc(F)c(C)c3c1c2[C@@H](NC(=O)OCc1ccc(NC(=O)CNC(=O)[C@H](Cc2ccccc2)NC(=O)CNC(=O)CNC(=O)CCCCCN2C(=O)C=CC2=O)cc1CN(C)C(=O)CN(C)C(=O)CN(C)C(=O)CN(C)C(=O)CN(C)C(=O)CN(C)C(=O)CN(C)C(=O)CN(C)C(=O)CN(C)C(=O)CN(C)C(=O)CN(C)C(C)=O)CC3` [LP-2], the “in vitro killing effect (cell survival curve)” value is reported as “more excellent killing effects in vitro on Detriot562”.
